According to patent EP3241830A1, “CONDENSED BICYCLIC HETEROCYCLIC DERIVATIVES AS PESTICIDES” (Bayer CropScience Aktiengesellschaft, priority 2016, dated 2017):

Columns and labels:
Phaedon cochleariae = Phaedon cochleariae spray test; type: in vivo; conditions: foliar, 168 h, after 7 days, sprayed Chinese cabbage leaf discs (Brassica pekinensis) with larvae, 100 % = all beetle larvae killed, read-out: Wirkung
Excerpt: Lösungsmittel: • 78,0 Gewichtsteile Aceton • 1,5 Gewichtsteile Dimethylformamid Emulgator: Alkylarylpolyglykolether
(§1) Zur Herstellung einer zweckmäßigen Wirkstoffzubereitung löst man 1 Gewichtsteil Wirkstoff mit den angegebenen Gewichtsteilen Lösungsmittel und füllt mit Wasser, welches eine Emulgatorkonzentration von 1000 ppm enthält, bis zum Erreichen der gewünschten Konzentration auf. Zur Herstellung weiterer Testkonzentrationen wird mit emulgatorhaltigem Wasser verdünnt.
Chinakohlblattscheiben (Brassica pekinensis) werden mit einer Wirkstoffzubereitung der gewünschten Konzentration gespritzt und nach dem Abtrocknen mit Larven des Meerrettichblattkäfers (Phaedon cochleariae) besetzt.
Nach 7 Tagen wird die Wirkung in % bestimmt. Dabei bedeutet 100 %, dass alle Käferlarven abgetötet wurden; 0 % bedeutet, dass keine Käferlarven abgetötet wurden.

[1] = logP determination by HPLC on a reversed-phase column (C18), EEC Directive 79/831 Annex V.A8; type: physicochemical; conditions: LC-MS in the acidic range, pH 2,7, 0,1 % aqueous formic acid and acetonitrile, 55°C, read-out: logP (HCOOH)
Procedure: Die Messung der logP Werte erfolgt gemäß EEC Directive 79/831 Annex V.A8 durch HPLC (High Performance Liquid Chromatography) an einer Phasenumkehrsäule (C 18). Temperatur: 55°C.
Die Bestimmung mit der LC-MS im sauren Bereich erfolgt bei pH 2,7 mit 0,1 % wässriger Ameisensäure und Acetonitril (enthält 0,1% Ameisensäure) als Eluenten; linearer Gradient von 10% Acetonitril bis 95% Acetonitril. In der Tabelle logP (HCOOH) genannt.
Die Eichung erfolgt mit unverzweigten Alkan-2-onen (mit 3 bis 16 Kohlenstoffatomen), deren logP-Werte bekannt sind (Bestimmung der logP-Werte anhand der Retentionszeiten durch lineare Interpolation zwischen zwei aufeinander folgenden Alkanonen).

Myzus persicae = Myzus persicae spray test; type: in vivo; conditions: foliar, 120 h, after 5 days, sprayed Chinese cabbage leaf discs (Brassica pekinensis) infested with all stages, 100 % = all aphids killed, read-out: Wirkung
Excerpt: Lösungsmittel: • 78 Gewichtsteile Aceton • 1,5 Gewichtsteile Dimethylformamid Emulgator: Alkylarylpolyglykolether
as §1
Chinakohlblattscheiben (Brassica pekinensis), die von allen Stadien der Grünen Pfirsichblattlaus (Myzus persicae) befallen sind, werden mit einer Wirkstoffzubereitung der gewünschten Konzentration gespritzt.
Nach 5 Tagen wird die Wirkung in % bestimmt. Dabei bedeutet 100 %, dass alle Blattläuse abgetötet wurden; 0 % bedeutet, dass keine Blattläuse abgetötet wurden.

`CCS(=O)(=O)c1c(-c2nc3cc(C(F)(F)F)ncc3n2C)n(C)c2cc(Cl)ccc12` [Bsp. I-1, 2-(6-Chlor-3-ethylsulfonyl-1-methyl-indol-2-yl)-3-methyl-6-(trifluormethyl)imidazo[4,5-c]pyridin] gave a mortality at 500 g/ha (Phaedon cochleariae) of 100%, a chromatographic logP [1] of 3.11 and a mortality at 500 g/ha (Myzus persicae) of 90%.

Compound `CCSc1c(-c2nc3cc(C(F)(F)F)ncc3n2C)n(C)c2cc(Cl)ccc12` [Bsp. I-2, 2-(6-Chlor-3-ethylsulfanyl-1-methyl-indol-2-yl)-3-methyl-6-(trifluormethyl)imidazo[4,5-c]pyridin] has a chromatographic logP [1] of 4.51.

With `Cn1c(-c2c(Cl)c3ccc(Cl)cc3n2C)nc2cc(C(F)(F)F)ncc21` [Bsp. V-1, 2-(3,6-Dichlor-1-methyl-indol-2-yl)-3-methyl-6-(trifluormethyl)imidazo[4,5-c]pyridin] the chromatographic logP [1] was 4.23.
